Target: T1, Gi-DREADD (hM4Di) on TRPV1+ neurons (Homo sapiens, UniProt P08173, A203G/Y113C)
T1 construct: expressed in transfected cells; host or cells: TRPV1+ neurons of TRPV1Cre/Gi-DREADD transgenic mice (TRPV1Cre x R26-LSL-Gi-DREADD), in vivo
T1 sequence (P08173 1-479 Y113C/A203G): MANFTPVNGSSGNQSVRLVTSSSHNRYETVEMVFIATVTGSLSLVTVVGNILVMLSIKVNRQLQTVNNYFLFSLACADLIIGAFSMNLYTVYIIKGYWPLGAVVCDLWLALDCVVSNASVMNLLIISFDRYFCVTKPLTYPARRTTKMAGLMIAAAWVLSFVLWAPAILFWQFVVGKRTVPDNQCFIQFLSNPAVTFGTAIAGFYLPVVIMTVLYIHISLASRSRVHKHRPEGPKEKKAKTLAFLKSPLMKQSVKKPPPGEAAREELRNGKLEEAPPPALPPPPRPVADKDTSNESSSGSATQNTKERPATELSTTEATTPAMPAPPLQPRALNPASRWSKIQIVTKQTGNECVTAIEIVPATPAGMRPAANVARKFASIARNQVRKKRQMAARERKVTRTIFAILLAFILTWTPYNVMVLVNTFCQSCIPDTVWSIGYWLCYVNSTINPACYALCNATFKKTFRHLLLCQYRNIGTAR
Assay: Chemogenetic silencing of TRPV1+ neurons before intratracheal NP27-OVA immunization; NP-specific antibody titer by ELISA
Format: in vivo
Settings: TRPV1-Gi-DREADD mice; CNO intraperitoneally 30 minutes prior to intratracheal immunization with NP27-OVA; D14 post-immunization; n=11; p=0.0017 vs vehicle
Experimental: FIG. 1. Silencing of sensory nerves at the time of primary immunization impacts antigen specific antibody responses. TRPV1^Cre/Gi-DREADD mice were administered with vehicle (DMSO) or CNO 30 min prior to immunization. Titer of NP-specific antibodies were monitored using ELISA.
Using an intra-tracheal instillation technique, specific antigens were delivered in the lung. Tracheal instillations are preferred methodology, over inhalation protocols that may primarily target the upper respiratory tract. This allows for making subsequent physiological measurements on test animals, or reinstallation using the same animal. Also, the dose of the inoculum introduced into the lungs can be carefully determined and more accurately delivered to ensure animal recovery. […] TRPV1+ neurons were selectively silenced at the time of immunization using a chemogenetic mouse model. The Gi-DREADD, also known as human muscarinic receptor 4 (hM4Di), is a mutated muscarinic acetylcholine receptor that, when activated by its ligand, CNO, initiates the inhibitory G-protein signaling cascade that inhibits neuronal signaling and/or excitability. TRPV1Cre/Gi-DREADD mice that express Gi-DREADD on TRPV1+ neurons were generated by crossing TRPV1Cre mice with R26-LSLGi-DREADD mice controls. […] Antibody levels were assessed over time. […]

C[N+]1([O-])CCN(C2=Nc3cc(Cl)ccc3Nc3ccccc32)CC1 [CNO, clozapine-N-oxide]
Anti-NP IgG1, Mean±SEM: 42,525+14,641 U/mL

From patent US20240197867A1, “NEURAL CONTROL OF ADAPTIVE IMMUNITY” (The Feinstein Institutes for Medical Research, priority 2021, published 2024)
